# Laboratory results taken from publication PMC4467156, “A new chemical inhibitor of angiogenesis and tumorigenesis that targets the VEGF signaling pathway upstream of Ras” (Oncotarget, 2015).
# Tested on: PLCγ phosphorylation
# Assay: Western blot, PLCγ phosphorylation in HUVEC
# Type: cell-based, human
# Details: 10 ng/mL VEGF-A 15 min, 25 μM COB223
# Description: Figure 11 Effect of COB223 on mitogenic or oncogenic activation of the Ras /MEK/ERK signaling pathway (A) Serum-starved HUVEC cells were incubated for 15 min in the presence of 10 ng/mL VEGF-A and in the absence or the presence of 25 μM COB223. The phosphorylations of PLCγ on tyrosine 783, of Raf on serine 338 or on serine 259 and of ERK1/2 were then analyzed by Western blot analysis of the cell lysates as described in Material and Methods. Western blots for total PLCγ, Raf and ERK1/2 were used as loading controls. (B) MCF10A cells overexpressing an oncogenic version of Ras (MCF10A-RasG12V) were treated for the indicated periods of time by 25 μM COB223. Total ERK1/2 and phospho-ERK1/2 were then visualized by Western blotting of the cell extracts. Non-treated regular MCF10A cells were analyzed as a control (first lane). (C) CCL-39 fibroblasts expressing a constitutively active Raf in an estrogen-responsive manner were stimulated for 3 h with estradiol and treated for 15 or 30 min with 25 μM COB223. Total ERK1/2 and phospho-ERK1/2 were then visualized by Western blotting of the cell extracts. Non-treated cells were analyzed as a control (left lanes).
# Serum-starved HUVEC cells were incubated for 15 min in the presence of either 10 ng/mL VEGF-A or 20 ng/mL FGF-2 and in the absence or the presence of indicated concentration of COB223. COB223 was incubated 15 min prior to stimulation. […]
compound,measurement,value
"CN(C)c1cccc2c(S(=O)(=O)NCCCN3CCN(CCCNC(=O)OC(C)(C)C)CC3)cccc12 [COB223, tert-Butyl 3-(4-(3-(5-(dimethylamino)naphthalene-1-sulfonamido)propyl)piperazin-1-yl) propylcarbamate]",VEGF-induced tyrosine phosphorylation of PLCγ on residue Y783,unaffected
